Results on three molecules are retold here after paper PMC3445516 (PLoS ONE, 2012).

Like-named read-outs stand apart in the source and are kept apart here.

Holding throughout (assay): Ambit kinase profiling, competition binding
The target of experiment [1] is T1, PHKG2 (Homo sapiens, UniProt P15735).
T1 construct: purchased Ambit Biosciences (KINOMEscan)
T1 sequence (P15735 1-406): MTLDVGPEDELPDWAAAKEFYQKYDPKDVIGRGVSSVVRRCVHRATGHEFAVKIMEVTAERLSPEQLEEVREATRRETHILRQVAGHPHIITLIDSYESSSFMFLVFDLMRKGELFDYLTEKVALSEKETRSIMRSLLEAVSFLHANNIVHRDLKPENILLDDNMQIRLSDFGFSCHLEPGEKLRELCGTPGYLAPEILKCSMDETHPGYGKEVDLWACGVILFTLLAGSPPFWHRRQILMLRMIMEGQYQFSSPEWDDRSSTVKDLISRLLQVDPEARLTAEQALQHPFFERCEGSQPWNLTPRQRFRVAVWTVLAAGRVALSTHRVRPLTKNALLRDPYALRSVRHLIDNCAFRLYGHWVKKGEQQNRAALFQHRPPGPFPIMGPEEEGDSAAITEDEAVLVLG
As for the experimental part: (§1) Also included in the kinase profile are four isoforms of PKC (δ, ε, η, θ) and eight isoforms of CAMKs (CAMKIα, δ, γ; CAMKIIα, β, δ, γ; CAMK4).
(§2) The global kinase profiling experiment was performed by Ambit Biosciences.

In experiment [2] the target is T2, PLK4 (Homo sapiens, UniProt O00444).
T2 construct: purchased Ambit Biosciences (KINOMEscan)
T2 sequence (O00444 1-970): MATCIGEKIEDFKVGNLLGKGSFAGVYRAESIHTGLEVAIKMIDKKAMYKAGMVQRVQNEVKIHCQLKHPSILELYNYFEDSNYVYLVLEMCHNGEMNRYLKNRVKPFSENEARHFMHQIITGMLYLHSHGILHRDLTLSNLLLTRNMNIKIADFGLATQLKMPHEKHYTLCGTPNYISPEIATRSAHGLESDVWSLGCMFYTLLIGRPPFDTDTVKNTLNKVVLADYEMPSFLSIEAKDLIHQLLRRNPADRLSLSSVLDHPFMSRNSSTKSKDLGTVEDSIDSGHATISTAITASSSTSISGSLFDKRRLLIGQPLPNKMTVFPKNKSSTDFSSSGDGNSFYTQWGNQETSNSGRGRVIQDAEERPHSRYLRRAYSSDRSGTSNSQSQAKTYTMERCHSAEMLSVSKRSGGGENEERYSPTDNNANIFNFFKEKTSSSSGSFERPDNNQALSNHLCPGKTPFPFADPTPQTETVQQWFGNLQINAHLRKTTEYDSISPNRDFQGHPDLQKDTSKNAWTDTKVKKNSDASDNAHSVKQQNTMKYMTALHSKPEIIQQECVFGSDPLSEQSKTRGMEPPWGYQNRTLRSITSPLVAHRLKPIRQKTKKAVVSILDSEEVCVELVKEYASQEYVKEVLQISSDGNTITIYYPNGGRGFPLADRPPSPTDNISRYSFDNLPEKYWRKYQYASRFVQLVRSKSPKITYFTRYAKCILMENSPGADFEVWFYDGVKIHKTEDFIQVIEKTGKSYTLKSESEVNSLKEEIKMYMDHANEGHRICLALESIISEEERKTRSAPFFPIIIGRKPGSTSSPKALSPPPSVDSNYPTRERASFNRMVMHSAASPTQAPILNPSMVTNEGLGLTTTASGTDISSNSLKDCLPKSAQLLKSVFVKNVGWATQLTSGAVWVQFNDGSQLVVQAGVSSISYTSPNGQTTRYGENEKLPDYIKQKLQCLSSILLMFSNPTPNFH
As for the experimental part:
as §1, §2

Experiment [3] concerns the target T3, TAOK3 (Homo sapiens, UniProt Q9H2K8).
T3 construct: purchased Ambit Biosciences (KINOMEscan)
T3 sequence (Q9H2K8 1-898): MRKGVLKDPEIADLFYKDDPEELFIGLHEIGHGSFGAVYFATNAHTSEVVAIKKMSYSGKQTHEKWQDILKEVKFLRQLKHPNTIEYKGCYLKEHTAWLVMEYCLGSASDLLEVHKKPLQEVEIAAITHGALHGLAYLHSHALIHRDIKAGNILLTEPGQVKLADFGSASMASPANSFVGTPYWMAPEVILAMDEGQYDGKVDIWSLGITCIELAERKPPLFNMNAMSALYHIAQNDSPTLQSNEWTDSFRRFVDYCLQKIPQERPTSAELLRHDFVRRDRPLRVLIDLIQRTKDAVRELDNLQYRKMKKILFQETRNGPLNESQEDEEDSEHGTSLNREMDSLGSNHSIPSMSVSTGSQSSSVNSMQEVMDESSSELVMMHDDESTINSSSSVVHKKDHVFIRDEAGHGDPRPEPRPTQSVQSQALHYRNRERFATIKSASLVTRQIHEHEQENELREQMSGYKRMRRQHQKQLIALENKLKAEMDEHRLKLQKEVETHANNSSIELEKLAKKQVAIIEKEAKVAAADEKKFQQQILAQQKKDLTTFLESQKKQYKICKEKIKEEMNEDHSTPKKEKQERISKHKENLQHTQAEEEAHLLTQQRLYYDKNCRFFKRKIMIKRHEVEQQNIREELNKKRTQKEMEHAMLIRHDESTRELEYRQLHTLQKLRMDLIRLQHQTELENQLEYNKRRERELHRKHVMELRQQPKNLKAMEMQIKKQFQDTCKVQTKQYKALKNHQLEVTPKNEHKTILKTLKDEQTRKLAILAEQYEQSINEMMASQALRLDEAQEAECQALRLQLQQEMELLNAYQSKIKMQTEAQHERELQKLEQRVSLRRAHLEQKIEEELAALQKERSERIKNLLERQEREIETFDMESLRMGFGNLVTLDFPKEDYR
As for the experimental part:
as §1, §2

For `CC(O)CNc1cc(-c2[nH]c3cccnc3c2-c2ccc(F)cc2)ccn1` (stereo not drawn) [Compound 140], the inhibition at 10 µM in experiment [1] (read-out: % Competition), in experiment [2] (read-out: % Competition) and in experiment [3] (read-out: % Competition) was < 50% each time.
On to `Fc1ccc(-c2c(-c3ccncc3)[nH]c3nccnc23)cc1` [RO1155697-000-005], for which the inhibition at 10 µM is 91% in experiment [1] (PHKG2, compound concentration 10 uM, read-out: Percent Competition); 98% in experiment [2] (PLK4, compound concentration 10 uM, read-out: Percent Competition); 80% in experiment [3] (TAOK3, compound concentration 10 uM, read-out: Percent Competition).
In the case of `Fc1ccc(-c2c(-c3ccncc3)[nH]c3nccnc23)cc1` [Compound 122], the inhibition at 10 µM turned out to be 91% in experiment [1] (PHKG2, 10 µM, read-out: % Competition); 98% in experiment [2] (PLK4, 10 µM, read-out: % Competition); 80% in experiment [3] (TAOK3, 10 µM, read-out: % Competition).
